Measured values published in paper PMC6941952, “A homogeneous bioluminescent immunoassay to probe cellular signaling pathway regulation” (Communications Biology, 2020).
Where “and” joins values, the source holds several entries; their conditions need not be identical. Identical values can stand only once.

System: STAT3 Phospho-Tyr705
Assay: NanoBiT pSTAT3 cell-based immunoassay in A431 cells
Design: species or system human
Settings: IL-6 10 ng/ml; for P-STAT3 (% compared to no inhibitor): replicate
Protocol: Prior to NanoBiT Cell-Based Immunoassay, 50,000 cells were seeded in 160 µl of complete growth media per well of a 96-well plate and incubated overnight. […] If necessary, the cell culture media were replaced with serum-free media after the cells were stably adherent on the plate and incubated overnight. To treat cells with activators or inhibitors, medium was changed to 30 µl of medium containing inhibitors. If activation of a specific pathway is needed, the cells were stimulated with 10 µl of medium containing activators. To lyse the cells, 10 µl of lysis buffer containing 0.1% digitonin diluted in 1X immunoassay buffer with protease and phosphatase inhibitors was added and the plates were mixed vigorously for 20 min. Then, 50 µl of an antibody mix containing two primary antibodies against the target protein and NanoBiT detecting antibodies (0.3 µl each per well), diluted in 1X immunoassay buffer was added to the lysates. The plates were incubated at 23 °C for 90 min, followed by the addition of 25 µl of Nano-Glo® reagent consisting of Nano-Glo® Luciferase Assay Substrate mixed with 1X immunoassay buffer. Luminescence was measured using a plate-reading luminometer.
Single dose or dose response inhibitor treatments were performed prior to activation of the pathways as follows. For IκBα, the cells were treated in 30 µl medium with IKK16 or MG132 for 60 min before the addition of 10 µl of DMEM containing appropriate concentration of TNFα. To measure phosphorylation of AKT or STAT3, the corresponding NanoBiT immunoassays were developed with MCF-7 or A431 cells, respectively, according the same scheme used to develop the IκBα assay using the primary antibodies for AKT and STAT3 described in the reagents section. […] Treatment with LY294002 was performed in 30 µl medium and cells were incubated for 60 min before the addition of 1 µM Insulin. To measure STAT3 phosphorylation, A431 cells were incubated overnight in DMEM medium without serum. […] After addition of the stimulators, the cells were incubated for additional times as follows. IκBα phosphorylation and degradation analyses required both time courses and single time points as described in figures. […] The NanoBiT immunoassay protocol was followed as described above.
All 96-well assay plates were read using a GloMax® 96 Microplate Luminometer from Promega. The instrument was set to 0.5 s integration time. In order to obtain net change of signal, the reagent background values (signal from the well containing all reagent except primary antibodies) were subtracted from the sample values. To plot and analyze the data, Microsoft Excel and GraphPad Prism® Software were used. IC50 values were determined by using a nonlinear regression fit to a sigmoidal dose response (variable slope).

Question: Which results are given for `CN(C)C(=O)/C(C#N)=C/c1ccc(-c2nc3cnc4[nH]ccc4c3n2C2CCCCC2)o1` [FM-381]?
Answer: P-STAT3 (% compared to no inhibitor) Average (inhibitor 0.0190735 nM): 105.1%; P-STAT3 (% compared to no inhibitor) Average (inhibitor 0.038147 nM): 92.2%; P-STAT3 (% compared to no inhibitor) Average (inhibitor 0.0762939 nM): 92.0%; P-STAT3 (% compared to no inhibitor) Average (inhibitor 0.152588 nM): 93.2%; P-STAT3 (% compared to no inhibitor) Average (inhibitor 0.305176 nM): 90.6%; P-STAT3 (% compared to no inhibitor) Average (inhibitor 0.610352 nM): 92.3%; P-STAT3 (% compared to no inhibitor) Average (inhibitor 1.2207 nM): 95.1%; P-STAT3 (% compared to no inhibitor) Average (inhibitor 2.44141 nM): 87.8%; P-STAT3 (% compared to no inhibitor) Average (inhibitor 4.88281 nM): 94.8%; P-STAT3 (% compared to no inhibitor) Average (inhibitor 9.76562 nM): 88.5%; P-STAT3 (% compared to no inhibitor) Average (inhibitor 19.5312 nM): 102.9%; P-STAT3 (% compared to no inhibitor) Average (inhibitor 39.0625 nM): 94.1%; P-STAT3 (% compared to no inhibitor) Average (inhibitor 78.125 nM): 88.7%; P-STAT3 (% compared to no inhibitor) Average (inhibitor 156.25 nM): 85.8%; P-STAT3 (% compared to no inhibitor) Average (inhibitor 312.5 nM): 74.2%; P-STAT3 (% compared to no inhibitor) Average (inhibitor 625 nM): 60.8%; P-STAT3 (% compared to no inhibitor) Average (inhibitor 2500 nM): 22.9%; P-STAT3 (% compared to no inhibitor) Average (inhibitor 5000 nM): 12.0%; P-STAT3 (% compared to no inhibitor) Average (inhibitor 10000 nM): 7.8%; P-STAT3 (% compared to no inhibitor) Average (inhibitor […]): 41.3%; P-STAT3 Raw data (inhibitor 0.0190735 nM): 278100 and 296300 and 285800; P-STAT3 Subtract reagent background (inhibitor 0.0190735 nM): 177250 and 195450 and 184950; P-STAT3 Raw data (inhibitor 0.038147 nM): 270700 and 268700 and 257500; P-STAT3 Subtract reagent background (inhibitor 0.038147 nM): 168850 and 166850 and 155650; P-STAT3 Raw data (inhibitor 0.0762939 nM): 272300 and 259800 and 258800; P-STAT3 Subtract reagent background (inhibitor 0.0762939 nM): 172505 and 160005 and 159005; P-STAT3 Raw data (inhibitor 0.152588 nM): 261700 and 262700 and 269600; P-STAT3 Subtract reagent background (inhibitor 0.152588 nM): 162310 and 163310 and 170210; P-STAT3 Raw data (inhibitor 0.305176 nM): 244400 and 266100 and 264700; P-STAT3 Subtract reagent background (inhibitor 0.305176 nM): 145940 and 167640 and 166240; P-STAT3 Raw data (inhibitor 0.610352 nM): 253900 and 276500 and 252400; P-STAT3 Subtract reagent background (inhibitor 0.610352 nM): 156070 and 178670 and 154570; P-STAT3 Raw data (inhibitor 1.2207 nM): 278300 and 261300 and 251600; P-STAT3 Subtract reagent background (inhibitor 1.2207 nM): 184135 and 167135 and 157435; P-STAT3 Raw data (inhibitor 2.44141 nM): 238200 and 252900 and 237300; P-STAT3 Subtract reagent background (inhibitor 2.44141 nM): 150835 and 165535 and 149935; P-STAT3 Raw data (inhibitor 4.88281 nM): 243400 and 259600 and 241900; P-STAT3 Subtract reagent background (inhibitor 4.88281 nM): 162830 and 179030 and 161330; P-STAT3 Raw data (inhibitor 9.76562 nM): 219800 and 245100 and 214000; P-STAT3 Subtract reagent background (inhibitor 9.76562 nM): 149750 and 175050 and 143950; P-STAT3 Raw data (inhibitor 19.5312 nM): 297400 and 269300 and 273700; P-STAT3 Subtract reagent background (inhibitor 19.5312 nM): 172850 and 196550 and 168450; P-STAT3 Raw data (inhibitor 39.0625 nM): 266500 and 275400 and 255500; P-STAT3 Subtract reagent background (inhibitor 39.0625 nM): 153650 and 164650 and 173550; P-STAT3 Raw data (inhibitor 78.125 nM): 243600 and 255500 and 264900; P-STAT3 Subtract reagent background (inhibitor 78.125 nM): 165105 and 143805 and 155705; P-STAT3 Raw data (inhibitor 156.25 nM): 244000 and 250600 and 253000; P-STAT3 Subtract reagent background (inhibitor 156.25 nM): 153610 and 144610 and 151210; P-STAT3 Raw data (inhibitor 312.5 nM): 227000 and 243200 and 212500; P-STAT3 Subtract reagent background (inhibitor 312.5 nM): 114040 and 128540 and 144740; P-STAT3 Raw data (inhibitor 625 nM): 189200 and 199400 and 224200; P-STAT3 Subtract reagent background (inhibitor 625 nM): 126370 and 91370 and 101570; P-STAT3 Raw data (inhibitor 2500 nM): 128000 and 133500 and 120100; P-STAT3 Subtract reagent background (inhibitor 2500 nM): 32735 and 40635 and 46135; P-STAT3 Raw data (inhibitor 5000 nM): 101000 and 109100 and 93870; P-STAT3 Raw data (inhibitor 10000 nM): 84360 and 88520 and 77950; P-STAT3 (% compared to no inhibitor) (inhibitor 0.0190735 nM): 88.0% and 120.5% and 106.8%; P-STAT3 (% compared to no inhibitor) (inhibitor 0.038147 nM): 83.9% and 102.9% and 89.9%; P-STAT3 (% compared to no inhibitor) (inhibitor 0.0762939 nM): 85.7% and 98.6% and 91.8%; P-STAT3 (% compared to no inhibitor) (inhibitor 0.152588 nM): 80.6% and 100.7% and 98.3%; P-STAT3 (% compared to no inhibitor) (inhibitor 0.305176 nM): 72.5% and 103.3% and 96.0%; P-STAT3 (% compared to no inhibitor) (inhibitor 0.610352 nM): 77.5% and 110.1% and 89.2%; P-STAT3 (% compared to no inhibitor) (inhibitor 1.2207 nM): 91.5% and 103.0% and 90.9%; P-STAT3 (% compared to no inhibitor) (inhibitor 2.44141 nM): 74.9% and 102.0% and 86.6%; P-STAT3 (% compared to no inhibitor) (inhibitor 4.88281 nM): 80.9% and 110.4% and 93.1%; P-STAT3 (% compared to no inhibitor) (inhibitor 9.76562 nM): 74.4% and 107.9% and 83.1%; P-STAT3 (% compared to no inhibitor) (inhibitor 19.5312 nM): 95.2% and 115.2% and 98.2%; P-STAT3 (% compared to no inhibitor) (inhibitor 39.0625 nM): 84.6% and 96.5% and 101.2%; P-STAT3 (% compared to no inhibitor) (inhibitor 78.125 nM): 90.9% and 84.3% and 90.8%; P-STAT3 (% compared to no inhibitor) (inhibitor 156.25 nM): 84.6% and 84.8% and 88.2%; P-STAT3 (% compared to no inhibitor) (inhibitor 312.5 nM): 62.8% and 75.3% and 84.4%; P-STAT3 (% compared to no inhibitor) (inhibitor 625 nM): 69.6% and 53.6% and 59.2%; P-STAT3 (% compared to no inhibitor) (inhibitor 2500 nM): 18.0% and 23.8% and 26.9%; P-STAT3 (% compared to no inhibitor) (inhibitor 5000 nM): 7.3% and 12.0% and 16.6%; P-STAT3 (% compared to no inhibitor) (inhibitor 10000 nM): 4.3% and 8.4% and 10.8%
